Among the data in PubChem BioAssay (NCI) are GI50 and TGI values, retold here.

Test systems include PC-3 prostate; MCF7 breast; MALME-3M melanoma; HOP-92 NSCLC; OVCAR-3 ovarian; BT-549 breast; HOP-62 NSCLC; UACC-257 melanoma; HCC-2998 colon; MOLT-4 leukemia.
Holding throughout (experiment): growth of human tumour cells (NCI), 48 h

“And” between values parts separate entries of the source, which are not always exact repeats. Identical values can stand only once.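 Step 1: Grow cells in 96-well plates. Step 2: Expose to compound for 48 hours at 5 concentrations. Step 3: Interpolate endpoints linearly; if unreached, use highest concentration. The concentration for 50% growth inhibition is given as GI50. TGI is the concentration that stops growth completely.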 Where only a bound is given, the exact number is not on record here.

As for `COc1ccc(C(=O)c2cc3c(N)c(C(=O)Nc4cccc(Cl)c4C)sc3nc2C)cc1`, the GI50 was 0.122 µM with PC-3 prostate; 0.0932 µM in the experiment with MCF7 breast; 0.205 µM with MALME-3M melanoma; 0.292 µM with HOP-92 NSCLC; 0.0872 µM in the experiment on OVCAR-3 ovarian; 0.25 µM in the experiment with BT-549 breast. Moreover, the GI50 with HOP-62 NSCLC was 0.154 µM; with UACC-257 melanoma, greater than 6.12 µM; in the experiment on HCC-2998 colon, 0.28 µM; in the experiment on MOLT-4 leukemia it was 0.153 µM. Besides, the TGI in the experiment on PC-3 prostate was greater than 25 µM; with MCF7 breast, greater than 25 µM; with MALME-3M melanoma, greater than 25 µM; with HOP-92 NSCLC it was 6.67 µM; with OVCAR-3 ovarian, greater than 25 µM; in the experiment with BT-549 breast, greater than 25 µM. Further, the TGI with HOP-62 NSCLC, in the experiment with UACC-257 melanoma, in the experiment on HCC-2998 colon and with MOLT-4 leukemia was greater than 25 µM throughout.

Consider `O=[N+]([O-])c1ccc(Sc2c3ccccc3nc3ccccc23)nc1`, for which the TGI was found to be 28.9 µM with PC-3 prostate; 9.15 µM in the experiment on MCF7 breast; 6.09 µM with MALME-3M melanoma; 6.79 µM in the experiment with HOP-92 NSCLC; 11.2 µM with OVCAR-3 ovarian; 27.3 µM in the experiment on BT-549 breast. The TGI was found to be 47.3 µM in the experiment with HOP-62 NSCLC, 19.2 µM in the experiment with UACC-257 melanoma, 32.1 µM in the experiment on HCC-2998 colon and 8.99 µM with MOLT-4 leukemia.

On to `NC(=O)/C=C/NC(=O)/C=N\O`, for which the TGI in the experiment with PC-3 prostate, in the experiment on MCF7 breast, in the experiment on MALME-3M melanoma, in the experiment on HOP-92 NSCLC, in the experiment on OVCAR-3 ovarian and in the experiment on BT-549 breast was greater than 100 µM in each case. In addition, the TGI with HOP-62 NSCLC, in the experiment with UACC-257 melanoma, with HCC-2998 colon and in the experiment with MOLT-4 leukemia was greater than 100 µM throughout.

As for `CN(CCCl)c1ccc(/C=C/C2=[N+](C)c3ccccc3C2(C)C)cc1`, the GI50 with PC-3 prostate was 0.243 µM; with MCF7 breast, 0.516 µM; with MALME-3M melanoma it was 0.575 µM; in the experiment on HOP-92 NSCLC, 0.288 µM; in the experiment on OVCAR-3 ovarian, 0.314 µM; in the experiment on BT-549 breast, 0.424 µM. Further, the GI50 is 1.07 µM in the experiment on HOP-62 NSCLC, 0.657 µM in the experiment on UACC-257 melanoma, 1.6 µM in the experiment on HCC-2998 colon and 0.308 µM in the experiment with MOLT-4 leukemia. For the same compound, the TGI in the experiment on PC-3 prostate came out at 10.6 µM; in the experiment on MCF7 breast, 10.6 µM; with MALME-3M melanoma it was 4.3 µM; in the experiment on HOP-92 NSCLC it was 2.2 µM; in the experiment on OVCAR-3 ovarian it was 3.15 µM; in the experiment on BT-549 breast, 4.85 µM. For the same compound, the TGI with HOP-62 NSCLC is 10.9 µM; in the experiment on UACC-257 melanoma, 7.57 µM; with HCC-2998 colon, 12.8 µM; in the experiment with MOLT-4 leukemia, 1.4 µM.

On to `Nc1nc(N)c2nc(CNc3ccc(C(=O)NC(CCCNC(=O)c4ccccc4C(=O)O)C(=O)O)cc3)cnc2n1` (stereo unspecified), for which the TGI in the experiment on PC-3 prostate, in the experiment with MCF7 breast, in the experiment with MALME-3M melanoma, in the experiment with OVCAR-3 ovarian, in the experiment with BT-549 breast and in the experiment with HOP-62 NSCLC was greater than 100 µM in each case. Also, the TGI with UACC-257 melanoma, in the experiment on HCC-2998 colon and in the experiment with MOLT-4 leukemia was greater than 100 µM each time. The GI50 with MCF7 breast is 0.00363 µM; with HOP-92 NSCLC, < 0.01 µM and 0.0274 µM; in the experiment with OVCAR-3 ovarian, < 0.0157 µM and 0.0676 µM; in the experiment with HOP-62 NSCLC, < 0.02 µM and 0.00449 µM and < 0.0546 µM; in the experiment on UACC-257 melanoma, 0.0155 µM; in the experiment with HCC-2998 colon, 0.00132 µM. In addition, the GI50 in the experiment on MOLT-4 leukemia is 0.00353 µM.

For `COc1ccc(-c2cc(-c3cc(OC)c(OC)c(OC)c3)c(C#N)c(N3CCOCC3)n2)cc1O`, the GI50 is 3.6 µM in the experiment on PC-3 prostate; 3.2 µM in the experiment on MCF7 breast; greater than 100 µM in the experiment with MALME-3M melanoma; 5.67 µM with HOP-92 NSCLC; 2.81 µM in the experiment on OVCAR-3 ovarian; 19.9 µM in the experiment on BT-549 breast. Also, the GI50 in the experiment on HOP-62 NSCLC is 33.2 µM; with UACC-257 melanoma, 38.4 µM; with HCC-2998 colon it was 29.2 µM; with MOLT-4 leukemia, 4.36 µM. In addition, the TGI was greater than 100 µM with PC-3 prostate; greater than 100 µM with MCF7 breast; greater than 100 µM with MALME-3M melanoma; greater than 100 µM with HOP-92 NSCLC; 8.33 µM in the experiment on OVCAR-3 ovarian; greater than 100 µM with BT-549 breast. Also, the TGI with HOP-62 NSCLC, with UACC-257 melanoma, in the experiment on HCC-2998 colon and in the experiment on MOLT-4 leukemia was greater than 100 µM each time.

Take `O=C(CCCCCCSc1nc(-c2ccc(Cl)cc2)cc(-c2ccc(Cl)cc2)n1)NO`: the GI50 with PC-3 prostate was 1.54 µM; with MCF7 breast it was 1.44 µM; in the experiment on MALME-3M melanoma, 1.16 µM; with HOP-92 NSCLC, 1.61 µM; in the experiment with OVCAR-3 ovarian, 1.38 µM; in the experiment with BT-549 breast, 1.92 µM. Besides, the GI50 in the experiment with HOP-62 NSCLC is 1.52 µM; in the experiment with UACC-257 melanoma it was 2.15 µM; in the experiment on HCC-2998 colon, 4.64 µM; with MOLT-4 leukemia it was 1.5 µM. Also, the TGI is 16.3 µM in the experiment on PC-3 prostate; greater than 50 µM with MCF7 breast; 4.45 µM in the experiment with MALME-3M melanoma; 8.39 µM with HOP-92 NSCLC; 4.91 µM with OVCAR-3 ovarian; 36.2 µM in the experiment with BT-549 breast. Besides, the TGI is 6.47 µM in the experiment on HOP-62 NSCLC, greater than 50 µM in the experiment with UACC-257 melanoma, 17 µM in the experiment with HCC-2998 colon and greater than 50 µM in the experiment with MOLT-4 leukemia.

As for `CCc1nc(Cl)nc(Cl)c1Cl`, the TGI with PC-3 prostate turned out to be 6.25 µM; with MCF7 breast it was 5.56 µM; in the experiment with MALME-3M melanoma, 1.57 µM; with HOP-92 NSCLC, 5.16 µM; in the experiment on OVCAR-3 ovarian, 2.08 µM; with BT-549 breast it was 14.6 µM. The TGI in the experiment with HOP-62 NSCLC is 21.2 µM; in the experiment with UACC-257 melanoma it was 1.87 µM; with HCC-2998 colon it was 2.24 µM; with MOLT-4 leukemia, 1.68 µM.

For the compound `COc1cnc2c(c1)C(=O)c1c-2n(CCCN2CCCC2)c(=O)c2cc(F)ccc12`, the GI50 is 0.42 µM in the experiment with PC-3 prostate; 0.0482 µM with MCF7 breast; 0.452 µM with MALME-3M melanoma; 0.531 µM in the experiment with HOP-92 NSCLC; 0.307 µM in the experiment on OVCAR-3 ovarian; 0.85 µM in the experiment on BT-549 breast. For the same compound, the GI50 was 0.212 µM in the experiment with HOP-62 NSCLC, 0.396 µM with UACC-257 melanoma, 2.65 µM in the experiment with HCC-2998 colon and 0.0591 µM with MOLT-4 leukemia. In addition, the TGI in the experiment with PC-3 prostate is 12.8 µM; in the experiment on MCF7 breast, 3.88 µM; in the experiment with MALME-3M melanoma it was 1.73 µM; with HOP-92 NSCLC, 7.8 µM; in the experiment with OVCAR-3 ovarian, 1.51 µM; in the experiment on BT-549 breast it was 6.43 µM. Moreover, the TGI in the experiment on HOP-62 NSCLC was 0.687 µM; with UACC-257 melanoma it was 2.2 µM; with HCC-2998 colon, 20.7 µM; in the experiment with MOLT-4 leukemia, 0.414 µM.
